For one assay, the system named is PGE2. As to the kind of experiment: Inhibition of prostaglandin synthesis (PGE2) in LPS-stimulated macrophage cell cultures. The format is cell-based. The note with it: LPS-stimulated macrophages. The text has this: (§1) Evaluation of the therapeutic effects of the novel PRS-211 compounds has now been carried out in a series of experimental systems to support the utility of these drugs as neuroprotectants, anti-inflammatory agents and anti-oxidative agents. These effects have been evaluated both in vitro and in vivo, and have been corroborated utilizing the following systems: • (a) Binding to the NMDA receptor linked channel: Non competitive antagonists of NMDA, the primary example of which is the compound MK-801, bind to a site within the NMDA receptor channel thus preventing the activation of the receptor-channel complex and the consequent neurotoxicity. The ability of various compounds to compete with the binding of tritium labeled MK-801 to brain membranes is considered a measure of their potency as NMDA non-competitive antagonists. • (b) Inhibition of prostaglandin production: The inhibitory effect of the new derivatives of Dexanabinol on prostaglandin synthesis is evaluated in macrophage cell cultures following LPS exposure to induce the inflammatory response. These assays are an indication of the anti-inflammatory activity of the individual analogs. • (c) Inhibition of Tumor Necrosis Factor Alpha: Specific aspects of the inflammatory response cascade are mediated by the cytokine TNFα. Inhibition of TNFα production and/or inhibition of TNFα release by the new analogs are assayed in macrophage cell cultures activated with LPS. This serves as another indication of the general anti-inflammatory potential of the novel compounds. • (d) Nitric Oxide Assay: As one aspect of the anti-oxidative potential of the novel analogs they were tested for their ability to inhibit the enzyme nitric oxide synthase (NOS). This assay can also serve as another indication of the anti-inflammatory cascade, as well as the anti-oxidative mechanisms. • (e) Ear Edema model: The anti-inflammatory activity of the new analogs is screened using an ear edema model in mice. This test system utilizes Croton oil or Arachidonic acid as inflammation inducers. The ability of the test compounds to prevent or diminish the inflammatory response to these stimulants is indicative of their systemic anti-inflammatory capability. • (f) Improved clinical outcome after closed head injury in rats: Severe head injury is associated with high mortality and severe neurological impairment. Animals subjected to head trauma in a controlled fashion serve as models in which to test drugs of therapeutic potential. Test compounds can be evaluated both for improved clinical outcome and for reduction of edema induced by closed head injury. The ability of compounds to reduce the severity of neurological symptoms and to reduce brain edema is considered a measure of their potency in reducing brain damage. • (g) Transient Middle cerebral artery occlusion (MCAo): The middle cerebral artery is the cerebral blood vessel most susceptible to stroke in humans. In animals, coagulation, permanent ligation or permanent placement of an occluding thread in the artery produces a permanent focal stroke affecting the MCA territory. Transient ligation or occlusion results in transient focal stroke. Both transient and permanent focal strokes result in varying degrees of edema and infarction in the affected brain regions. The ability of compounds to reduce the volumes of edema and infarction is considered a measure of their potential as anti-stroke treatment. • (h) Optic Nerve Crush: Application of mechanical pressure to the rat optical nerve results in crush injury of the axons, which is accompanied by immediate changes in oxidative metabolism and delayed axonal death and blindness. […]

The test system of assay [1] is transient middle cerebral artery occlusion in rats. In words: Transient middle cerebral artery occlusion (MCAo), infarct size evaluation. It counts as in vivo. Particulars: IV, one week after the ischemic insult. The text has this: Experimental design. The design was a randomized one, performed in a masked fashion as to whether drug or vehicle was being given, and an attempt was made to generate approximately equal numbers of drug- and vehicle-treated animals.
• a. Male rats (8 /treatment group) 320-380 gr. (Harlan Israel). • b. Halothane (Rhone Poulenc France) • c. Pentobarbitone (Pental Veterinary, CTS Israel). • d. Poly - L - Lysine (Sigma, USA). • e. Silk suture material 3-0 and 4-0. • f. Nylon (Polyamid) suture material 3-0. Four cm pieces were cut and positioned in a solution of 1% Poly - L - Lysine for 1 minute and dried in an oven (60 ° C) for 60 minutes. The tip of each piece was rounded under a flame. • g. Saline (Teva Medical). • h. Blank cremophor ethanol cosolvent (Pharmos). • i. Dexanabinol in cremophor ethanol cosolvent 50 mg/ml. (Both Dexanabinol and its vehicle were diluted in saline prior to drug administration. • j. Analogs PRS-211,092, PRS-211,095, PRS-211,128 PRS-211,132 and PRS-211,220 in cremophor ethanol cosolvent, 50 mg/ml. • k. The analogs were diluted in saline prior to drug administration.
• a. Surgical details of the MCAo method used for testing dexanabinol analogs, are presented in Belayev, et al., (Belayev, Busto, Weizhao, and Ginsberg, Stroke 26:2313-2319, 1995) which is incorporated herein in its entirety by reference. • b. Two hours after the start of MCAO, the animals were reanesthetized with halothane, the neck wound was re-opened and the nylon thread pulled out of the Internal carotid artery (ICA). The skin wound was then closed with 3-0 silk suture material and the animals allowed to recover from the anesthesia. • c. Three sets of animals were tested. In the first test immediately (2+0 hours) before thread removal the animals were injected IV with either analogs PRS-211,095, PRS-211,128, PRS-211,132, or Dexanabinol (PRS-211,007) each at a dosage of 5 mg/kg. One group of animals was treated with 5ml/kg vehicle alone. In another group, the animals subjected to "sham" operation, the suture was passed into the ICA, as described above, but immediately withdrawn. In the second set dexanabinol, PRS-211,092, PRS-211,095 and PRS-211,220 were used, at 2+0 hours. In the third set dexanabinol, PRS-211,092, PRS-211,095 and PRS-211,220 were administered 1 hour after thread removal (2+1 hours). Laser Doppler Flow (LDF) determined the success of MCAo - a drop of more then 50% in cerebral blood flow was considered as a sign of successful MCAo. Although LDF was a helpful corroborative sign, clinical outcome remained the final inclusion/exclusion criterion, since, with the exception of the PRS-211,220 staircase study, LDF was introduced only after initiation of the study.
A detailed investigation of neurological performance was carried out on the first, third and the 7th day after the MCAo. Two parameters were examined: posture and the flexion reflex (based on Nokon and Chuang, NeuroReport 9, 1998: 2081-2084). Animals were scored according to their performance:
One week after the ischemic insult, animals were euthanized with pentobarbitone 100 mg/kg IP. The animals were perfused through the heart with heparinized 4% formaldehyde solution in PBS (pH 7.4). Brains were then removed, and kept in the same solution before preparation for histological evaluation of the brain infarct volume.

Another assay has as its system TNFα. As to the kind of experiment: Inhibition of TNFα in LPS-stimulated macrophage cell cultures (ELISA). It counts as cell-based. Particulars: LPS-stimulated macrophages.
Description: as §1
(ELISA stands for enzyme-linked immunosorbent assay.)

For a further assay, the system named is NMDA receptor. As to the kind of experiment: Radioligand binding: displacement of [3H]MK-801 from rat forebrain membranes.
Description: as §1
A general note: In a radioligand displacement assay an active substance lowers the binding of a labelled ligand.

In assay [2] the test system is rat model of myocardial ischemia. In words: Rat model of myocardial ischemia and reperfusion. The format is in vivo, rats. Particulars: given 15 minutes before occlusion; 45 minutes occlusion, 4 hours reperfusion; versus vehicle.
Assay [3] deals with Nitric Oxide Synthase (NOS). As to the kind of experiment: Inhibition of nitric oxide synthase (nitrite fluorimetric assay, LPS-stimulated macrophage cultures). It counts as cell-based. The note with it: LPS-stimulated macrophages.
Description: as §1

For another assay, the system named is ear edema model in mice. As to the kind of experiment: Ear edema model. The format is in vivo. The note with it: Mus musculus, Croton oil (CO) as inducer, IP.
Description: as §1

What is called inhibition is the percentage by which the read-out fell short of the control. A low value points to a weak effect. For orientation: IC50 means the concentration needed to halve the response being measured. Broadly, the ED50 is the dose that gives a 50% effect, or the effect in half of the subjects. A lower ED50 goes with greater potency.

Turning to `CCCCCCC(C)(C)c1cc(O)c2c(c1)OC(C)(C)[C@H]1CC=C(CSc3ncc[nH]3)C[C@H]21` (single isomer, unassigned) [211,092-000], the figures for the inhibition at 10 µM (in the assay with PGE2; in the assay on TNFα; in assay [3]) were 57%, 22% and 0%, respectively. The “reduction of infarct size” value in assay [1] is on record as 52%. For the same molecule, the “NMDA receptor binding / affinity” value in the assay with NMDA receptor (MK-801 binding to membranes) is recorded as “low affinity”. For the same molecule, the IC50 at NMDA receptor (displacement of [3H]MK-801, rat forebrain membranes, read-out: NMDA BINDING IC50) is above 50 µM. The “infarct size (AN/AR, AN/LV)” value in assay [2] is reported as “clear decrease in infarct size”. Besides, in the assay on ear edema model in mice, it took a dose of 28 µmol/kg to reach the 50% effect level (ED50).
